In patent US20050197634A1, “Methods for coating and impregnating medical devices with antiseptic compositions” (Board of Regents, The University of Texas System, priority 2004, published 2005):

Assays:
Pseudomonas aeruginosa = experiment: Zones of inhibition of impregnated device segments, modified Kirby-Bauer technique; assay type: cell-based; conditions: gentian violet after impregnating surfaces of various polymers incl. polyvinylchloride
Description: (§1) In Vitro antimicrobial activity. The antimicrobial activity of impregnated catheters was evaluated in duplicate by a modified Kirby-Bauer technique. BBL Mueller Hinton II agar plates (obtained from Fisher Scientific) were inoculated with 0.5 McFarland of the appropriate microorganism (hospital isolates from the MD Anderson Cancer Center). Then 10 mm segments of impregnated devices were embedded in the inoculated plates and placed in an incubator at about 37° C. for at least 18 hours. Zones of inhibition were measured perpendicular to the long axis of the device.
(§2) Anti-microbial activity of GND-ETT and GND-UC segments was assessed by modified Kirby-Bauer method. Segments were embedded in Mueller Hinton agar plates inoculated with one of the following organisms: Candida albicans (CA), vancomycin resistant enterococci (VRE), E. coli (EC), Candida parapsilosis(CP), methicillin resistant S. aureus (MRSA) or Pseudomonas aeruginosa (PS). Plates were incubated at 37° C. Zones of inhibition (ZOI) created by impregnated segments were measured in mm.
(§3) GND-ETT and GND-UC were immersed in sterile pooled bronchoalveolar lavage (BAL) or urine, respectively, and incubated at 37° C. BAL and urine were changed weekly and ZOI were determined in duplicate at weekly intervals.

S. epidermis = conditions: in vitro study, gentian violet alone; cited from earlier work
[1] = tested on: Candida parapsilosis (C. Parap.1-100-0022); experiment: Zones of inhibition of impregnated device segments, modified Kirby-Bauer technique; assay type: cell-based; conditions: in words
Description: as §1, §2, §3

[2] = tested on: Methicillin resistant Staph. aureus (MRSA2066); experiment: as above; assay type: cell-based; conditions: in words
Description: as §1, §2, §3

Alcaligenes faecalis = experiment: Zones of inhibition of impregnated PVC tubes; assay type: cell-based; conditions: in words
Description: as §1

[3] = tested on: various nosocomial pathogens; experiment: In vitro zones of inhibition of coated or impregnated catheter devices and sutures; assay type: cell-based; conditions: coating or impregnating catheter devices and sutures
Description: as §1

[4] = sutures, compared with Genlenol

[H]/N=C(\N/C(=N/[H])NCCCCCCNC(=N)NC(=N)Nc1ccc(Cl)cc1)Nc1ccc(Cl)cc1 [chlorhexidine]
activity against Pseudomonas aeruginosa, agent on its own (Pseudomonas aeruginosa): not highly active

CN(C)c1ccc(C(=C2C=CC(=[N+](C)C)C=C2)c2ccc(N(C)C)cc2)cc1 [GV, Gentian violet]
activity against Pseudomonas aeruginosa, agent on its own (Pseudomonas aeruginosa): no activity
colonization of S. epidermis on impregnated CSF silicone shunt surfaces (S. epidermis): prevent the colonization

CN(C)c1ccc(C(=C2C=CC(=[N+](C)C)C=C2)c2ccc(N(C)C)cc2)cc1.Cc1cc([O-])cc(C)c1Cl [Genlenol]
zones of inhibition against C. parapsilosis ([1]; PVC tubes and PVC catheters): Improvements
zone against C. parapsilosis ([1]; silicone catheter): large zone
zone against MRSA ([2]; silicone catheter): increased the zone against MRSA considerably
zones of inhibition against Alcaligenes faecalis (Alcaligenes faecalis): to a large extent
in vitro zones of inhibition against various nosocomial pathogens [3]: large in vitro zones of inhibition

CC(C)(C)CC(C)(C)c1ccc([O-])c(Cc2ccc(Cl)cc2Cl)c1.CN(C)c1ccc(C(=C2C=CC(=[N+](C)C)C=C2)c2ccc(N(C)C)cc2)cc1 [Genfoctol]
zones against C. parapsilosis [1, 4]: much larger zones
zones against MRSA [2, 4]: much larger zones
in vitro zones of inhibition against various nosocomial pathogens [3]: large in vitro zones of inhibition

Cc1cc(O)cc(C)c1Cl [PCMX, p-chloro-m-xylenol; 4-chloro-3,5-dimethylxylenol, reference compound]
in vitro zones of inhibition against various nosocomial pathogens [3]: Neither the neutral form of PCMX nor its sodium salt could produce in vitro zones of inhibition

CN(C)c1ccc(C(=C2C=CC(=[N+](C)C)C=C2)c2ccc(N(C)C)cc2)cc1.[O-]c1cc(Cl)ccc1Oc1ccc(Cl)cc1Cl [Genlosan]
in vitro zones of inhibition against various nosocomial pathogens [3]: large in vitro zones of inhibition
